Assay type in all cases: cell-based
Conditions in all cases: compounds at 50 nM and 500 nM, 24 hours

In one test the target is T1, WEE1 (Homo sapiens, UniProt P30291+Q96SW2).
T1 construct: effects of the compounds of the present disclosure on the expression of target proteins in cells; endogenous in cells; host or cells: human PBMCs (hPBMCs)
Kind of test: Western-blot assay, substrate protein degradation in hPBMCs: WEE1. As to the method:
(§1) Conventional Western blot assay was performed to evaluate the effects of the compounds of the present disclosure on the expression of target proteins in cells. • (1) Cell Seeding and Protein Harvesting: Human peripheral blood mononuclear cells (hPBMCs) at a density of 1x10^6 cells/mL were thawed according to the PBMC Recovery Protocol (Milecell Biotechnologies Inc, Shanghai). […] After 24 hours of compounds treatment, cells were harvested and lysed in RIPA protein lysate containing protease inhibitors on ice for 30 min, followed by centrifugation. The supernatant was aspirated as the extracted total cell protein. The protein concentration of the supernatant was determined using the conventional BCA (Bicinchoninic Acid) assay. • (2) To the collected supernatant, 5X SDS sample loading buffer was added, followed by denaturation at 95°C for 5 minutes. The denatured samples were then separated by SDS-PAGE electrophoresis on a polyacrylamide gel. Proteins were transferred to a nitrocellulose membrane (0.45 µm NC membrane), blocked with blocking buffer at room temperature for 1 hour, and subjected to antibody incubation and development procedures according to the antibody manufacturer's instructions (Cell Signaling Technology).
(§2) Half-Maximal Degradation Concentration value (the drug concentration required for degrading proteins by 50%, abbreviated as DC50) reads method: comparing the grayscale values of Western blot bands from drug-treated samples with those from blank DMSO-treated controls, and identifying the drug concentration range at which the grayscale value is half that of the DMSO-treated control bands.
(§3) DC50 values can be calculated using ImageJ software to measure grayscale values of Western blot bands from drug-treated samples. The concentration-response curve is fitted to estimate the drug concentration corresponding to half the grayscale value.
(§4) Target protein remaining (%) refers to the percentage of target protein remaining in cells after treatment with protein degrader compounds.
(§5) Calculation method for target protein remaining (%): Use ImageJ software to measure grayscale values of Western blot bands from drug (protein degrader)-treated samples. The grayscale value of drug-treated bands is divided by that of internal control protein bands, and the resulting quotient is normalized to obtain the relative percentage of remaining target protein after protein degrader treatment. Target protein degradation rate(%) = 1−target protein remaining(%). [formula]

In a further test the target is T2, IKZF1 (Homo sapiens, UniProt Q13422+Q96SW2).
T2 construct: effects of the compounds of the present disclosure on the expression of target proteins in cells; endogenous in cells; host or cells: human PBMCs (hPBMCs)
Kind of test: Western-blot assay, substrate protein degradation in hPBMCs: IKZF1. How it is done:
as §1, §2, §3, §4, §5

A further test deals with T3, IKZF2 (Homo sapiens, UniProt Q96SW2+Q9UKS7).
T3 construct: effects of the compounds of the present disclosure on the expression of target proteins in cells; endogenous in cells; host or cells: human PBMCs (hPBMCs)
Kind of test: Western-blot assay, substrate protein degradation in hPBMCs: IKZF2. As to the method:
as §1, §2, §3, §4, §5

The target of a further test is T4, IKZF3 (Homo sapiens, UniProt Q96SW2+Q9UKT9).
T4 construct: effects of the compounds of the present disclosure on the expression of target proteins in cells; endogenous in cells; host or cells: human PBMCs (hPBMCs)
Kind of test: Western-blot assay, substrate protein degradation in hPBMCs: IKZF3. As to the method:
as §1, §2, §3, §4, §5

For a further test, the target named is T5, CK1α (Homo sapiens, UniProt P48729+Q96SW2).
T5 construct: effects of the compounds of the present disclosure on the expression of target proteins in cells; endogenous in cells; host or cells: human PBMCs (hPBMCs)
Kind of test: Western-blot assay, substrate protein degradation in hPBMCs: CK1α. How it is done:
as §1, §2, §3, §4, §5

Another test concerns the target T6, GSPT1 (Homo sapiens, UniProt P15170+Q96SW2).
T6 construct: effects of the compounds of the present disclosure on the expression of target proteins in cells; endogenous in cells; host or cells: human PBMCs (hPBMCs)
Kind of test: Western-blot assay, substrate protein degradation in hPBMCs: GSPT1. How it is done: as §1, §2, §3, §4, §5

T3 sequence (Q9UKS7 whole entry): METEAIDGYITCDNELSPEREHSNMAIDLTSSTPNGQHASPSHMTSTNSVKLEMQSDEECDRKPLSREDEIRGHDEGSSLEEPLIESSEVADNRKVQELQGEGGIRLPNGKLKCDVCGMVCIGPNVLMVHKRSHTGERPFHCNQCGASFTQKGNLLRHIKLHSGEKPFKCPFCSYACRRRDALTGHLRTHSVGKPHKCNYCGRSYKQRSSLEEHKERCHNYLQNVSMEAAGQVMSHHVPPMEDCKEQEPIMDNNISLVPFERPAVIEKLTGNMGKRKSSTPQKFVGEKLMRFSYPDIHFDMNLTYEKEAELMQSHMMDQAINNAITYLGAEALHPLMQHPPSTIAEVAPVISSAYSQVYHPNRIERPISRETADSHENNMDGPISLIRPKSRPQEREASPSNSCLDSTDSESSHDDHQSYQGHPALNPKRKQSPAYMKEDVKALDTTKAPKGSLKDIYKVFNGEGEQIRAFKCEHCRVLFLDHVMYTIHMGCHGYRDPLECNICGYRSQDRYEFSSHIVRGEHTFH
T3 sequence (Q96SW2 whole entry): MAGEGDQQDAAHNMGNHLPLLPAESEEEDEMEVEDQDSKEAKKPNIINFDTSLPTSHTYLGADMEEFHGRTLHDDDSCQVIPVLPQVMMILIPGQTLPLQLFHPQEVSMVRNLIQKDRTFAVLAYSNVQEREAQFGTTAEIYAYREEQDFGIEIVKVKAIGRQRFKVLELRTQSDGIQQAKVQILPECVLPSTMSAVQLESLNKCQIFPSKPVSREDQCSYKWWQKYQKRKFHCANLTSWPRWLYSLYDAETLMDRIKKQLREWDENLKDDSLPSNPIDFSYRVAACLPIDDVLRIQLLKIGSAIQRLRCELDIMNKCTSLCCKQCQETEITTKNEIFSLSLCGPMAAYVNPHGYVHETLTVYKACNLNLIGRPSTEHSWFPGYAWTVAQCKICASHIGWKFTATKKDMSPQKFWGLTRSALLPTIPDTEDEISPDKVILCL
T3 sequence (Q16531 whole entry partner): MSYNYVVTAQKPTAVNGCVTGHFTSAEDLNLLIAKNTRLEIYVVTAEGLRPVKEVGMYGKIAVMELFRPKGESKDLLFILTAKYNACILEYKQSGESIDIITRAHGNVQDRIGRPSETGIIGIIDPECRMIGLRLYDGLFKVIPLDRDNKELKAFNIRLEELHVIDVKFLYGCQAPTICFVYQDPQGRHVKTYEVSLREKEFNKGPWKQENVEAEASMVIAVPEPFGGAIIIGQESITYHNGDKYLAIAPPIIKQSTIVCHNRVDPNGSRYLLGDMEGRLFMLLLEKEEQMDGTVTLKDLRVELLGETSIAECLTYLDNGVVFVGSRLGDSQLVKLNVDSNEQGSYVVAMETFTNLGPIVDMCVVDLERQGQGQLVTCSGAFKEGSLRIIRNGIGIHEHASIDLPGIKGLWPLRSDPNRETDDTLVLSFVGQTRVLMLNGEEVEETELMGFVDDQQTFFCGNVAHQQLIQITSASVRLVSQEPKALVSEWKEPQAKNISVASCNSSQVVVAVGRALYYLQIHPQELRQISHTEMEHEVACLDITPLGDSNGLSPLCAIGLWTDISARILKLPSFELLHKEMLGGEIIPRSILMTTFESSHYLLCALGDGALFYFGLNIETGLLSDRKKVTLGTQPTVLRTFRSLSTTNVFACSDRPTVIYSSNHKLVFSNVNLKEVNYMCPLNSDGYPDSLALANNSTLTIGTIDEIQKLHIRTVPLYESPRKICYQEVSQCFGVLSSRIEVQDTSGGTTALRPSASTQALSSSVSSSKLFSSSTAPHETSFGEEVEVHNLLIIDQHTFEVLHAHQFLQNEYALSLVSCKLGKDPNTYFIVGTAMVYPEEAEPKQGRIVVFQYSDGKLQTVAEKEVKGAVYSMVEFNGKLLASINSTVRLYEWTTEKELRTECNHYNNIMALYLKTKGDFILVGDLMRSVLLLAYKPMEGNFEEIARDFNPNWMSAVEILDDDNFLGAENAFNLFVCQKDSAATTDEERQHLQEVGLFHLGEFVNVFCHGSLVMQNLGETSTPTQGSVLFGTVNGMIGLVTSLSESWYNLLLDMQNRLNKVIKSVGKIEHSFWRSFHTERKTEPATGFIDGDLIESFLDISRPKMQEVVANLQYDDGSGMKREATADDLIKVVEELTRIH
T2 sequence (Q13422 whole entry): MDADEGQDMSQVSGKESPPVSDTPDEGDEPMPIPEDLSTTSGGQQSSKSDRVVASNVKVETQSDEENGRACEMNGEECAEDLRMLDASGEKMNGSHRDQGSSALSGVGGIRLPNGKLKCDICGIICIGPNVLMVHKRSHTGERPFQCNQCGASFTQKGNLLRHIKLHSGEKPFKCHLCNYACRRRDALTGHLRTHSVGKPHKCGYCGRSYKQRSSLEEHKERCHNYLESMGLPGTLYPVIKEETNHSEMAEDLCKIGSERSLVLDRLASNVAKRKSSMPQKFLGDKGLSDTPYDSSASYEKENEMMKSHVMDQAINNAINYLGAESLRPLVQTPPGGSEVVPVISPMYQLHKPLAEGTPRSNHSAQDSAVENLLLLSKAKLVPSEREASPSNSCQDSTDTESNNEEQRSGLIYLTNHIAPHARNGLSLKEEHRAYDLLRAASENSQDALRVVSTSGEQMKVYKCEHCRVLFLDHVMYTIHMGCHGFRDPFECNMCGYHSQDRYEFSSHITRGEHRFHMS
T2 sequence (Q96SW2 whole entry): as the sequence (Q96SW2 whole entry) above
T2 sequence (Q16531 whole entry partner): as the sequence (Q16531 whole entry partner) above
T1 sequence (P30291 whole entry): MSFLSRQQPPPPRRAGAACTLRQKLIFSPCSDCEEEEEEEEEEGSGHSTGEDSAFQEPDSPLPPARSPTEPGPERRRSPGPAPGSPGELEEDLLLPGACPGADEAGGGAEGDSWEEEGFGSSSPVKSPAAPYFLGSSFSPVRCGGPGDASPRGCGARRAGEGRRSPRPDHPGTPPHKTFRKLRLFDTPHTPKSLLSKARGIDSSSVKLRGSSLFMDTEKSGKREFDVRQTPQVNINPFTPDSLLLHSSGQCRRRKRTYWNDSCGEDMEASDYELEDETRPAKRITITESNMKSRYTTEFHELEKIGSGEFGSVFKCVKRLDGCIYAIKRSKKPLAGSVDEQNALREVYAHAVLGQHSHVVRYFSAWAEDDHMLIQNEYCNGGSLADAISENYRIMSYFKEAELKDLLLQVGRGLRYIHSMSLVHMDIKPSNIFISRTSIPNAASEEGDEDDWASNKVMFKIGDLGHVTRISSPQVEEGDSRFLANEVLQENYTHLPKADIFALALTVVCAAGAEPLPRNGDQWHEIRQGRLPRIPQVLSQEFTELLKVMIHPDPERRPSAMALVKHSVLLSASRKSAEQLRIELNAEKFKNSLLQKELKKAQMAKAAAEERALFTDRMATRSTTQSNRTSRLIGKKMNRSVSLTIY
T1 sequence (Q96SW2 whole entry): as the sequence (Q96SW2 whole entry) above
T1 sequence (Q16531 whole entry partner): as the sequence (Q16531 whole entry partner) above
T5 sequence (P48729 whole entry): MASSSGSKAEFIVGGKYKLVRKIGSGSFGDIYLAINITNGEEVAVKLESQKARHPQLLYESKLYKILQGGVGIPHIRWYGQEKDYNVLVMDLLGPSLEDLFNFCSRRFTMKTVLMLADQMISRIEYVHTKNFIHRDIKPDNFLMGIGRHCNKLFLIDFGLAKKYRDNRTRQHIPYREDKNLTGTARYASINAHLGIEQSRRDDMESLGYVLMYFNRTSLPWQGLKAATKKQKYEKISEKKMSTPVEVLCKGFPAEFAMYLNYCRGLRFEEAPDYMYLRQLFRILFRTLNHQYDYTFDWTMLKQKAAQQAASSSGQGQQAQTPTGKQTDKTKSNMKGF
T5 sequence (Q96SW2 whole entry): as the sequence (Q96SW2 whole entry) above
T5 sequence (Q16531 whole entry partner): as the sequence (Q16531 whole entry partner) above
T4 sequence (Q9UKT9 whole entry): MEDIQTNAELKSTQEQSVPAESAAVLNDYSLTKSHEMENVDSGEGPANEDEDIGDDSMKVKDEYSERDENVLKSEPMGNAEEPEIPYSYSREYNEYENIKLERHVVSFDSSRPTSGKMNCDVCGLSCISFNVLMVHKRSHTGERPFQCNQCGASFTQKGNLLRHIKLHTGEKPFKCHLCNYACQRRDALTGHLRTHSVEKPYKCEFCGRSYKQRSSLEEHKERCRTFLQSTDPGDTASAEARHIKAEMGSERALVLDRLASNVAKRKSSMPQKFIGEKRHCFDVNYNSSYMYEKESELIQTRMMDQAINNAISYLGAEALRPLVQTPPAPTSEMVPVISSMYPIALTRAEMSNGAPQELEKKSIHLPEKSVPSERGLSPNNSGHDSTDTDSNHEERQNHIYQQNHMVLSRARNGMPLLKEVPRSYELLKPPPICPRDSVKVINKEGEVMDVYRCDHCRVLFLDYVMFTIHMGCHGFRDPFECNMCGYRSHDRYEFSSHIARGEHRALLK
T4 sequence (Q96SW2 whole entry): as the sequence (Q96SW2 whole entry) above
T4 sequence (Q16531 whole entry partner): as the sequence (Q16531 whole entry partner) above

Consider `O=C1CCN(N2Cc3cc(CN4CCN(c5nsc6ccccc56)CC4)ccc3C2=O)C(=O)N1` [GT-04865, 1-(5-((4-(benzo[d]isothiazol-3-yl)piperazin-1-yl)methyl)-1-oxoisoindolin-2-yl)dihydropyrimidine-2,4(1H,3H)-dione], for which, on WEE1, the “WEE1 substrate protein remaining %” value is reported as “B ("B" is defined as 80%< substrate protein remaining %≤ 100%)”. For the same molecule, at IKZF1, the “IKZF1 substrate protein remaining %” value is on record as “A ("A" is defined as 0% ≤ substrate protein remaining % ≤ 80%)”. The “IKZF2 substrate protein remaining %” value on IKZF2 is listed as “B ("B" is defined as 80%< substrate protein remaining %≤ 100%)”. Besides, the “IKZF3 substrate protein remaining %” value on IKZF3 was “B ("B" is defined as 80%< substrate protein remaining %≤ 100%)”. Besides, the “CK1α substrate protein remaining %” value at CK1α is given as “B ("B" is defined as 80%< substrate protein remaining %≤ 100%)”. Further, at GSPT1, the “GSPT1 substrate protein remaining %” value is given as “A ("A" is defined as 0% ≤ substrate protein remaining % ≤ 80%)”.
`O=C1CCN(N2Cc3cc(CN4CCN(C(c5ccccc5)c5ccncc5)CC4)ccc3C2=O)C(=O)N1` (stereo not drawn) [GT-04891, 1-(1-oxo-5-((4-(phenyl(pyridin-4-yl)methyl)piperazin-1-yl)methyl)isoindolin-2-yl)dihydropyrimidine-2,4(1H,3H)-dione]: at WEE1, the “WEE1 substrate protein remaining %” value is given as “B ("B" is defined as 80%< substrate protein remaining %≤ 100%)”. In addition, on IKZF1, the “IKZF1 substrate protein remaining %” value is given as “A ("A" is defined as 0% ≤ substrate protein remaining % ≤ 80%)”. For the same molecule, at IKZF2, the “IKZF2 substrate protein remaining %” value is recorded as “A ("A" is defined as 0% ≤ substrate protein remaining % ≤ 80%)”. Besides, the “IKZF3 substrate protein remaining %” value on IKZF3 is “B ("B" is defined as 80%< substrate protein remaining %≤ 100%)”. Also, the “CK1α substrate protein remaining %” value on CK1α is reported as “B ("B" is defined as 80%< substrate protein remaining %≤ 100%)”. In addition, on GSPT1, the “GSPT1 substrate protein remaining %” value was “A ("A" is defined as 0% ≤ substrate protein remaining % ≤ 80%)”.
As to `O=C1CCN(N2Cc3cc(CN4CCN(C(c5ccc(Cl)cc5)c5ccc(Cl)cc5)CC4)ccc3C2=O)C(=O)N1` [GT-04895, 1-(5-((4-(bis(4-chlorophenyl)methyl)piperazin-1-yl)methyl)-1-oxoisoindolin-2-yl)dihydropyrimidine-2,4(1H,3H)-dione], the “WEE1 substrate protein remaining %” value on WEE1 is “B ("B" is defined as 80%< substrate protein remaining %≤ 100%)”. The “IKZF1 substrate protein remaining %” value at IKZF1 is “A ("A" is defined as 0% ≤ substrate protein remaining % ≤ 80%)”. Also, the “IKZF2 substrate protein remaining %” value on IKZF2 is “A ("A" is defined as 0% ≤ substrate protein remaining % ≤ 80%)”. The “IKZF3 substrate protein remaining %” value at IKZF3 is listed as “B ("B" is defined as 80%< substrate protein remaining %≤ 100%)”. For the same molecule, the “CK1α substrate protein remaining %” value at CK1α is listed as “B ("B" is defined as 80%< substrate protein remaining %≤ 100%)”. Moreover, the “GSPT1 substrate protein remaining %” value at GSPT1 is given as “A ("A" is defined as 0% ≤ substrate protein remaining % ≤ 80%)”.
With `O=C1CCN(N2Cc3cc(CN4C[C@@H]5C[C@H]4CN5C(c4ccccc4)c4ccccc4)ccc3C2=O)C(=O)N1` [GT-04938, 1-(5-(((1S,4S)-5-benzhydryl-2,5-diazabicyclo[2.2.1]heptan-2-yl)methyl)-1-oxoisoindolin-2-yl)dihydropyrimidine-2,4(1H,3H)-dione], the “WEE1 substrate protein remaining %” value on WEE1 is “A ("A" is defined as 0% ≤ substrate protein remaining % ≤ 80%)”. Moreover, at IKZF1, the “IKZF1 substrate protein remaining %” value is recorded as “B ("B" is defined as 80%< substrate protein remaining %≤ 100%)”. Besides, the “IKZF2 substrate protein remaining %” value at IKZF2 is listed as “A ("A" is defined as 0% ≤ substrate protein remaining % ≤ 80%)”. For the same molecule, the “IKZF3 substrate protein remaining %” value at IKZF3 is listed as “B ("B" is defined as 80%< substrate protein remaining %≤ 100%)”. On CK1α, the “CK1α substrate protein remaining %” value was “B ("B" is defined as 80%< substrate protein remaining %≤ 100%)”. The “GSPT1 substrate protein remaining %” value on GSPT1 is listed as “A ("A" is defined as 0% ≤ substrate protein remaining % ≤ 80%)”.
As to `Cc1ccc(N2CCN(Cc3ccc4c(c3)CN(N3CCC(=O)NC3=O)C4=O)CC2)s1` [GT-05083, 1-(5-((4-(5-methylthiophen-2-yl)piperazin-1-yl)methyl)-1-oxoisoindolin-2-yl)dihydropyrimidine-2,4(1H,3H)-dione], the “WEE1 substrate protein remaining %” value on WEE1 is listed as “B ("B" is defined as 80%< substrate protein remaining %≤ 100%)”. In addition, the “IKZF1 substrate protein remaining %” value at IKZF1 is given as “B ("B" is defined as 80%< substrate protein remaining %≤ 100%)”. The “IKZF2 substrate protein remaining %” value at IKZF2 is on record as “A ("A" is defined as 0% ≤ substrate protein remaining % ≤ 80%)”. At IKZF3, the “IKZF3 substrate protein remaining %” value is “B ("B" is defined as 80%< substrate protein remaining %≤ 100%)”. Also, the “CK1α substrate protein remaining %” value on CK1α is recorded as “B ("B" is defined as 80%< substrate protein remaining %≤ 100%)”. For the same molecule, the “GSPT1 substrate protein remaining %” value at GSPT1 was “B ("B" is defined as 80%< substrate protein remaining %≤ 100%)”.
As to `Cc1ccsc1N1CCN(Cc2ccc3c(c2)CN(N2CCC(=O)NC2=O)C3=O)CC1` [GT-05084, 1-(5-((4-(3-methylthiophen-2-yl)piperazin-1-yl)methyl)-1-oxoisoindolin-2-yl)dihydropyrimidine-2,4(1H,3H)-dione], the “WEE1 substrate protein remaining %” value at WEE1 is recorded as “B ("B" is defined as 80%< substrate protein remaining %≤ 100%)”. At IKZF1, the “IKZF1 substrate protein remaining %” value is “B ("B" is defined as 80%< substrate protein remaining %≤ 100%)”. Further, on IKZF2, the “IKZF2 substrate protein remaining %” value is given as “A ("A" is defined as 0% ≤ substrate protein remaining % ≤ 80%)”. The “IKZF3 substrate protein remaining %” value on IKZF3 is recorded as “B ("B" is defined as 80%< substrate protein remaining %≤ 100%)”. The “CK1α substrate protein remaining %” value at CK1α is recorded as “B ("B" is defined as 80%< substrate protein remaining %≤ 100%)”. Besides, the “GSPT1 substrate protein remaining %” value on GSPT1 is “B ("B" is defined as 80%< substrate protein remaining %≤ 100%)”.
With `Cc1cc(N2CCN(Cc3ccc4c(c3)CN(N3CCC(=O)NC3=O)C4=O)CC2)cs1` [GT-05087, 1-(5-((4-(5-methylthiophen-3-yl)piperazin-1-yl)methyl)-1-oxoisoindolin-2-yl)dihydropyrimidine-2,4(1H,3H)-dione], the “WEE1 substrate protein remaining %” value at WEE1 is on record as “B ("B" is defined as 80%< substrate protein remaining %≤ 100%)”. Further, the “IKZF1 substrate protein remaining %” value at IKZF1 is “B ("B" is defined as 80%< substrate protein remaining %≤ 100%)”. Besides, the “IKZF2 substrate protein remaining %” value at IKZF2 is listed as “B ("B" is defined as 80%< substrate protein remaining %≤ 100%)”. On IKZF3, the “IKZF3 substrate protein remaining %” value is reported as “B ("B" is defined as 80%< substrate protein remaining %≤ 100%)”. Besides, the “CK1α substrate protein remaining %” value on CK1α is on record as “B ("B" is defined as 80%< substrate protein remaining %≤ 100%)”. On GSPT1, the “GSPT1 substrate protein remaining %” value was “A ("A" is defined as 0% ≤ substrate protein remaining % ≤ 80%)”.
Consider `Cc1cccc(N2CCN(Cc3ccc4c(c3)CN(N3CCC(=O)NC3=O)C4=O)CC2)n1` [GT-05125, 1-(5-((4-(6-methylpyridin-2-yl)piperazin-1-yl)methyl)-1-oxoisoindolin-2-yl)dihydropyrimidine-2,4(1H,3H)-dione], for which the “WEE1 substrate protein remaining %” value at WEE1 is recorded as “A ("A" is defined as 0% ≤ substrate protein remaining % ≤ 80%)”. Moreover, at IKZF1, the “IKZF1 substrate protein remaining %” value is reported as “A ("A" is defined as 0% ≤ substrate protein remaining % ≤ 80%)”. Moreover, the “IKZF2 substrate protein remaining %” value at IKZF2 was “B ("B" is defined as 80%< substrate protein remaining %≤ 100%)”. Moreover, the “IKZF3 substrate protein remaining %” value on IKZF3 was “A ("A" is defined as 0% ≤ substrate protein remaining % ≤ 80%)”. Further, at CK1α, the “CK1α substrate protein remaining %” value is recorded as “A ("A" is defined as 0% ≤ substrate protein remaining % ≤ 80%)”. In addition, the “GSPT1 substrate protein remaining %” value at GSPT1 is “A ("A" is defined as 0% ≤ substrate protein remaining % ≤ 80%)”.

These data come from patent publication EP4722207A1, “OXOISOINDOLINYL-SUBSTITUTED TETRAHYDROPYRIMIDINEDIONE DERIVATIVE AND USE THEREOF” (Gluetacs Therapeutics (Shanghai) Co., Ltd., priority 2023, dated 2024).
